# Source: publication PMC4184702 (Pharmacology Research & Perspectives, 2014)
# Key:
# σ 1 sigma receptor = experiment: PDSP primary binding, σ 1; settings: 10 µM, n = 4
# Description: (§1) For experimental details, please refer to the Psychoactive Drug Screening Program (PDSP) web site http://pdsp.med.unc.edu/.
# (§2) ^a The default concentration for primary binding experiments is 10 µM (n = 4). ^b Negative inhibition represents a stimulation of binding. ^c BZPR: Benzodiazepine Receptors (rat brain site). ^d DOR: Delta Opioid Receptor; KOR: Kappa Opioid Receptor; MOR: Mu Opioid Receptor. ^e DAT: Dopamine Transporter; NET: Norepinephrine Transporter; SERT: Serotonin Transporter. ^f NMDA: N-methyl-D-aspartate receptor.
# [1] = test system: BZPR: Benzodiazepine Receptors (rat brain site); experiment: PDSP primary binding, BZPR; settings: 10 µM, n = 4
# Description: as §1, §2
# α1B adrenergic receptor = target: T1, α1B adrenergic receptor (Homo sapiens, UniProt P35368); experiment: PDSP primary binding, α1B; settings: n = 4, read-out: Inhibition (primary binding competition efficacy), α1B
# T1 construct: purchased NIMH Psychoactive Drug Screening Program (PDSP)
# Description: as §1, §2
# M4 muscarinic receptor = target: T2, M4 muscarinic receptor (Homo sapiens, UniProt P08173); experiment: PDSP primary binding, M4; settings: n = 4, read-out: Inhibition (primary binding competition efficacy), M4
# T2 construct: purchased NIMH Psychoactive Drug Screening Program (PDSP)
# Description: as §1, §2
# strain TA1535 = experiment: Ames test, strain TA1535; assay type: cell-based
# strain TA98 = experiment: Ames test, strain TA98; assay type: cell-based
# [2] = target: T3, SERT: Serotonin Transporter (Homo sapiens, UniProt P31645); experiment: PDSP primary binding, SERT; settings: n = 4, read-out: Inhibition (primary binding competition efficacy), SERT
# T3 construct: purchased NIMH Psychoactive Drug Screening Program (PDSP)
# Description: as §1, §2
# Male C57 BL6/J mice = test system: Male C57 BL6/J mice
# Description: Male C57 BL6/J (from Jackson Laboratories) mice were used for these studies. Upon receipt at 6 weeks of age, mice were single-housed in OptiMICE ventilated cages and acclimated to the colony room for 1 week prior to beginning of the dosing regimen at 7 weeks of age.
# Mice were tested in NSF on day 29 of treatment. Eighteen hours prior to behavioral testing, all food was removed from the home cage. The NSF test was carried out during a 15-min period. The test chamber consists of a rectangular (14″ × 20″ × 6″) plastic box. The chamber floor is covered with bedding (∼0.5″). At the time of testing, animals were placed in the left front corner of the chamber and two food pellets (regular chow) were placed on a laminated white paper circle (13 cm in diameter) positioned in the center of the test chamber. The latency to eat is defined by the animal holding the food with one or both paws and taking a bite of the pellet and staying in the center eating for at least 5 sec. The mice were videotaped and tapes were scored by two trained observers blind to the treatments. […] Upon completion of NSF, about 50 60 min after the pretreatment, mice were decapitated and all animals from all treatment groups except from the imipramine group were processed for collection of trunk blood and whole-brain tissue. […]
# [3] = Metabolic stability, cryopreserved hepatocytes, mouse; assay type: in vitro ADME; settings: CD-1, 1.0E-06 M, 2 h
# [4] = target: T4, DOR: Delta Opioid Receptor (Homo sapiens, UniProt P41143); experiment: PDSP primary binding, DOR; settings: n = 4, read-out: Inhibition (primary binding competition efficacy), DOR
# T4 construct: purchased NIMH Psychoactive Drug Screening Program (PDSP)
# Description: as §1, §2
# H2 histamine receptor = target: T5, H2 histamine receptor (Homo sapiens, UniProt P25021); experiment: PDSP primary binding, H2; settings: n = 4, read-out: Inhibition (primary binding competition efficacy), H2
# T5 construct: purchased NIMH Psychoactive Drug Screening Program (PDSP)
# Description: as §1, §2
# [5] = target: T6, NET: Norepinephrine Transporter (Homo sapiens, UniProt P23975); experiment: PDSP primary binding, NET; settings: n = 4, read-out: Inhibition (primary binding competition efficacy), NET
# T6 construct: purchased NIMH Psychoactive Drug Screening Program (PDSP)
# Description: as §1, §2
# α2C adrenergic receptor = target: T7, α2C adrenergic receptor (Homo sapiens, UniProt P18825); experiment: PDSP primary binding, α2C; settings: n = 4, read-out: Inhibition (primary binding competition efficacy), α2C
# T7 construct: purchased NIMH Psychoactive Drug Screening Program (PDSP)
# Description: as §1, §2
# 5-HT1B = target: T8, 5-HT1B (Homo sapiens, UniProt P28222); experiment: PDSP primary binding, 5-HT1B; settings: n = 4, negative inhibition = stimulation of binding, read-out: Inhibition (primary binding competition efficacy), 5-HT1B
# T8 construct: purchased NIMH Psychoactive Drug Screening Program (PDSP)
# Description: as §1, §2
# [6] = target: β2-containing nAChRs (α2β2, α3β2, α4β2, and α4β2*); parameters: method as in Yu et al. [2012]; settings: ref Yu et al. [2012], read-out: Ki values range at β2-containing nAChRs; cited from earlier work
# C57/BL6J mice = experiment: Preliminary acute maximum tolerated dose study; assay type: in vivo, mouse
# D4 dopamine receptor = target: T9, D4 dopamine receptor (Homo sapiens, UniProt P21917); experiment: PDSP primary binding, D4; settings: n = 4, read-out: Inhibition (primary binding competition efficacy), D4
# T9 construct: purchased NIMH Psychoactive Drug Screening Program (PDSP)
# Description: as §1, §2
# β3 adrenergic receptor = target: T10, β3 adrenergic receptor (Homo sapiens, UniProt P13945); experiment: PDSP primary binding, β3; settings: n = 4, read-out: Inhibition (primary binding competition efficacy), β3
# T10 construct: purchased NIMH Psychoactive Drug Screening Program (PDSP)
# Description: as §1, §2
# PBR = target: T11, PBR (Rattus norvegicus, UniProt P16257); experiment: PDSP primary binding, PBR; settings: n = 4, read-out: Inhibition (primary binding competition efficacy), PBR
# T11 construct: purchased NIMH Psychoactive Drug Screening Program (PDSP)
# Description: as §1, §2
# [7] = Metabolic stability, liver microsomes, mouse; assay type: in vitro ADME; settings: CD-1, 1.0E-06 M, 1 h
# 5-HT2A = target: T12, 5-HT2A (Homo sapiens, UniProt P28223); experiment: PDSP primary binding, 5-HT2A; settings: n = 4, read-out: Inhibition (primary binding competition efficacy), 5-HT2A
# T12 construct: purchased NIMH Psychoactive Drug Screening Program (PDSP)
# Description: as §1, §2
# [8] = with or without S9, 5, 10, 50, or 100 μmol/L
# T9 sequence (P21917 whole entry): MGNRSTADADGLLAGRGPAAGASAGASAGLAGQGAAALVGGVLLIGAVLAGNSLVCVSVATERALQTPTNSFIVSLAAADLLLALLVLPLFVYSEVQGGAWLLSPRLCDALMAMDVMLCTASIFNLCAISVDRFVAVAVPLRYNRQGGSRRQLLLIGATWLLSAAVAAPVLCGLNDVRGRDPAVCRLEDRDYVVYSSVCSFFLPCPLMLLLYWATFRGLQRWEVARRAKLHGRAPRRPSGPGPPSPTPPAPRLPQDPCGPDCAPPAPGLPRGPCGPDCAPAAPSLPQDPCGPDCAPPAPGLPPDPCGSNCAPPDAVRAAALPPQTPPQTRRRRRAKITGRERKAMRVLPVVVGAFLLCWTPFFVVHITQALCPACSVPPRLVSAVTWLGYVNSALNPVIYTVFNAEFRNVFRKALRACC
# T8 sequence (P28222 whole entry): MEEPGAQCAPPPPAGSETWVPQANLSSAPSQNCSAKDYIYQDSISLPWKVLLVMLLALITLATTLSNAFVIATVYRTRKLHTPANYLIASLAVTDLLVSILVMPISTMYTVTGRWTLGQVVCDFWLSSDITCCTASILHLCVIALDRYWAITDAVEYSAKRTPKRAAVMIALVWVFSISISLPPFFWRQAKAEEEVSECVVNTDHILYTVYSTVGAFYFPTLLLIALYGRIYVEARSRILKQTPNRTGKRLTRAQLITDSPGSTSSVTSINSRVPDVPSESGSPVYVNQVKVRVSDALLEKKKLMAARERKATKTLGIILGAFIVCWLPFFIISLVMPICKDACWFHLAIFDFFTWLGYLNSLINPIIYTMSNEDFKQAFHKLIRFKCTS
# T7 sequence (P18825 whole entry): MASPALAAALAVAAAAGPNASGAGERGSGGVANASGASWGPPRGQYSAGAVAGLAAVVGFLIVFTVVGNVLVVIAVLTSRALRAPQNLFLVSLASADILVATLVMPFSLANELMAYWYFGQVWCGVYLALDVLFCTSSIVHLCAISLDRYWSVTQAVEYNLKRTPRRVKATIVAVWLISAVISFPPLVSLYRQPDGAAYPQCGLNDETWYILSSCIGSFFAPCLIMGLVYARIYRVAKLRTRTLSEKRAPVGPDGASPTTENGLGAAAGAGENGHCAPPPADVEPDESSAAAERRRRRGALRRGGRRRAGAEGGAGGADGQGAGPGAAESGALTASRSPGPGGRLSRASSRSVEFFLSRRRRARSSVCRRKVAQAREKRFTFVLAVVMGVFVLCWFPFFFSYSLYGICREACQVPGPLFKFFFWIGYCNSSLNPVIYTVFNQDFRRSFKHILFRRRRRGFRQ
# T4 sequence (P41143 whole entry): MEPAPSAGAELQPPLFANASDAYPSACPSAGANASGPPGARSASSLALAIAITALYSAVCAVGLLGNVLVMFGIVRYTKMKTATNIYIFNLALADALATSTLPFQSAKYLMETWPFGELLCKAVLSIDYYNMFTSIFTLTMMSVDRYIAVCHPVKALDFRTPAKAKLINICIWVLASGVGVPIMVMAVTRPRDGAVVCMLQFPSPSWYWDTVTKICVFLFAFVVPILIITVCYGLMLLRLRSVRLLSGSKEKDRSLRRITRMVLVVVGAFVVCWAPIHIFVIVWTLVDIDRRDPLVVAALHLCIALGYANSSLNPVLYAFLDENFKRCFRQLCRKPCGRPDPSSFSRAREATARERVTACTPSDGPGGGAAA
# T1 sequence (P35368 whole entry): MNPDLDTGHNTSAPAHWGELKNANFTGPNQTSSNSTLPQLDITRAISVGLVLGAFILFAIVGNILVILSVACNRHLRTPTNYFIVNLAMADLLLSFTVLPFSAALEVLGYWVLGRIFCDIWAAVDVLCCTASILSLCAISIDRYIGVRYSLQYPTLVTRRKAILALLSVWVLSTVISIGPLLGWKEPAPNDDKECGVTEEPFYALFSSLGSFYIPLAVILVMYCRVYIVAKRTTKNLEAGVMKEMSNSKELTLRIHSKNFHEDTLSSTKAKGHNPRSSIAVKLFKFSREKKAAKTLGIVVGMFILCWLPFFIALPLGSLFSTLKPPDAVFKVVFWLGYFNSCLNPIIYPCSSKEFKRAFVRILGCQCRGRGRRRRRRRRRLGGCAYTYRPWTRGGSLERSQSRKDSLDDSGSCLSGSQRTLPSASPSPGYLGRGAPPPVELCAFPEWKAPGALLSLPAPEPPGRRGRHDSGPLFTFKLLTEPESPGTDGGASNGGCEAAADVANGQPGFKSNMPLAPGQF
# T5 sequence (P25021 whole entry): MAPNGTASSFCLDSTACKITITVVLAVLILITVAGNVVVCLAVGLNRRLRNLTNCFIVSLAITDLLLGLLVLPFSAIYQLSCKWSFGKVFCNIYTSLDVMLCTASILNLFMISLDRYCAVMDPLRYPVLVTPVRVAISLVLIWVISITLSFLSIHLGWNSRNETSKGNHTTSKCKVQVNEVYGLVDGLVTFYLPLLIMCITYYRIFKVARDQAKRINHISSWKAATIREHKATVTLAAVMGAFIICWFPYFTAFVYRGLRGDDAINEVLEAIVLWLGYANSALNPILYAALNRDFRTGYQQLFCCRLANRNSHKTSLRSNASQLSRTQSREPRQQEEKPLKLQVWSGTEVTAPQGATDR
# T3 sequence (P31645 whole entry): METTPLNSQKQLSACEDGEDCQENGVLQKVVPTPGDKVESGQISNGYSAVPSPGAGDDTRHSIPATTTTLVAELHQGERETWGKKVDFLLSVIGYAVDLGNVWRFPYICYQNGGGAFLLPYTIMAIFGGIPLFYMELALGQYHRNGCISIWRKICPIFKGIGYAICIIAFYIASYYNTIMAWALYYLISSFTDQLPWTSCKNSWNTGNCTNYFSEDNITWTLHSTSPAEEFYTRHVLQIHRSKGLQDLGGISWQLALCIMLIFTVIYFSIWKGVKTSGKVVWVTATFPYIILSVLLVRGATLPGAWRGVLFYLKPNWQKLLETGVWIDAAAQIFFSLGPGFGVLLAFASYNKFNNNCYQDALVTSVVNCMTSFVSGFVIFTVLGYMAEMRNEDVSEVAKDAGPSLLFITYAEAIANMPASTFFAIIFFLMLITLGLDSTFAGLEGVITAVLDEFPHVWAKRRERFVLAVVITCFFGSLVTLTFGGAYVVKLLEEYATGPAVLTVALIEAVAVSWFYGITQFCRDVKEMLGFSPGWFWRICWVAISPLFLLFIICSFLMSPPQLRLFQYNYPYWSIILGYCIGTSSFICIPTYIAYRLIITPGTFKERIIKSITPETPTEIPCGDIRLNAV
# T2 sequence (P08173 whole entry): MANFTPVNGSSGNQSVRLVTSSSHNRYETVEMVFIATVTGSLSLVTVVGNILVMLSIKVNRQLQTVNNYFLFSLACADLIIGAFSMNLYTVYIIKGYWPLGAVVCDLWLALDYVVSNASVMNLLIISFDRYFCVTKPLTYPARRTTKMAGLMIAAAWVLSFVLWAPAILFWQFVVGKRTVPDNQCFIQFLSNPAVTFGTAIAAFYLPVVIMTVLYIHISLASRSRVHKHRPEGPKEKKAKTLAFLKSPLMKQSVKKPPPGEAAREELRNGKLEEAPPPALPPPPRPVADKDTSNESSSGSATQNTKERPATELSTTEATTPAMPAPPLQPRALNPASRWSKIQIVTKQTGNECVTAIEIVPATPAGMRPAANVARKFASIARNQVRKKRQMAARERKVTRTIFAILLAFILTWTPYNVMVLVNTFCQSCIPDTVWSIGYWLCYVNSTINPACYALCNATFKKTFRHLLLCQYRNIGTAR
# T11 sequence (P16257 whole entry): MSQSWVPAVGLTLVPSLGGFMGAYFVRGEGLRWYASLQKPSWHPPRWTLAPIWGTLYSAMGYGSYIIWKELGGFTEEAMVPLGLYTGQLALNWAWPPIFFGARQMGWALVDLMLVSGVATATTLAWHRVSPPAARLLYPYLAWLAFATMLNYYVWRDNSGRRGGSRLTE
# T10 sequence (P13945 whole entry): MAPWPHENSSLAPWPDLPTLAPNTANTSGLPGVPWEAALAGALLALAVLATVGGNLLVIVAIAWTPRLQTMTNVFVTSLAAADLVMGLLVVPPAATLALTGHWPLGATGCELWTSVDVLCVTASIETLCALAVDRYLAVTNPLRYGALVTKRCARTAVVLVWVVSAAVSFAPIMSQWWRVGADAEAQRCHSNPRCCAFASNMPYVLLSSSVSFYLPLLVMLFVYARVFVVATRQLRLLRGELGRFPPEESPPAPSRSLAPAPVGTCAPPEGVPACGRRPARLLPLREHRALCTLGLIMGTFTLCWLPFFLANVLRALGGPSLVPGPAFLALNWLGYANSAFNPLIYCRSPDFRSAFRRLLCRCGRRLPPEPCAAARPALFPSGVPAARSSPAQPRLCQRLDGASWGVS
# T12 sequence (P28223 whole entry): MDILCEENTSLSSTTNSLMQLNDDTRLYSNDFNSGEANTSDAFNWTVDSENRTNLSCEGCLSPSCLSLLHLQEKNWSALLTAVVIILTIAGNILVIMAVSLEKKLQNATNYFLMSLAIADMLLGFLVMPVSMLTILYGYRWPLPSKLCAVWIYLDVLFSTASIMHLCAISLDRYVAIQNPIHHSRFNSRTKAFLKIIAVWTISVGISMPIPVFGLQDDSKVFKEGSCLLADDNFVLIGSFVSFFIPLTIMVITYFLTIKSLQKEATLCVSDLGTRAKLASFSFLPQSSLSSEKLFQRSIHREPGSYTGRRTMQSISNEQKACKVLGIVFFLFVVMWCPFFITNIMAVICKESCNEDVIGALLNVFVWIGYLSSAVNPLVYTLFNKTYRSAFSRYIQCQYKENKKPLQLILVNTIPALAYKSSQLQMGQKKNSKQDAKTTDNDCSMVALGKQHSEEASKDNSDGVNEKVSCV
structure (smiles),measurement,setting,value
"OCCc1cc(-c2cncc(OC[C@@H]3CCN3)c2)on1 [LF-3-88, 2-[5-[5-(2(S)-azetidinylmethoxyl)-3-pyridyl]-3-isoxazolyl]ethanol]","Inhibition (primary binding competition efficacy), σ 1",σ 1 sigma receptor,15.8%
same,"Inhibition (primary binding competition efficacy), BZPR",[1],6.7%
same,inhibition at 10 µM,α1B adrenergic receptor,-1.8%
same,inhibition at 10 µM,M4 muscarinic receptor,-3.6%
same,Ames test Result,"strain TA1535; strain TA1535 + S9, 1.0E-04 M",Negative
same,Ames test Result,"strain TA1535; strain TA1535 + S9, 1.0E-05 M",Negative
same,Ames test Result,"strain TA1535; strain TA1535 + S9, 5.0E-05 M",Negative
same,Ames test Result,"strain TA1535; strain TA1535 + S9, 5.0E-06 M",Negative
same,Ames test Result,"strain TA1535; strain TA1535 – S9, 1.0E-04 M",Negative
same,Ames test Result,"strain TA1535; strain TA1535 – S9, 1.0E-05 M",Negative
same,Ames test Result,"strain TA1535; strain TA1535 – S9, 5.0E-05 M",Negative
same,Ames test Result,"strain TA1535; strain TA1535 – S9, 5.0E-06 M",Negative
same,"mutagenic potential (Ames), TA1535",strain TA1535; [8],negative
same,Ames test Result,"strain TA98; strain TA98 + S9, 1.0E-04 M",Negative
same,Ames test Result,"strain TA98; strain TA98 + S9, 1.0E-05 M",Negative
same,Ames test Result,"strain TA98; strain TA98 + S9, 5.0E-05 M",Negative
same,Ames test Result,"strain TA98; strain TA98 + S9, 5.0E-06 M",Negative
same,Ames test Result,"strain TA98; strain TA98 – S9, 1.0E-04 M",Negative
same,Ames test Result,"strain TA98; strain TA98 – S9, 1.0E-05 M",Negative
same,Ames test Result,"strain TA98; strain TA98 – S9, 5.0E-05 M",Negative
same,Ames test Result,"strain TA98; strain TA98 – S9, 5.0E-06 M",Negative
same,"mutagenic potential (Ames), TA98",strain TA98; [8],negative
same,inhibition at 10 µM,[2],-0.2%
same,treatment effect on body weight,Male C57 BL6/J mice; 4-week administration,did not find a significant treatment effect
same,behavioral changes / tolerability in NSF paradigm,"Male C57 BL6/J mice; 28 days oral administration, 5 and 10 mg/kg",No obvious behavioral changes
same,Remaining (metabolic stability),[3],91%
same,inhibition at 10 µM,[4],5.9%
same,inhibition at 10 µM,H2 histamine receptor,39.5%
same,inhibition at 10 µM,[5],0.4%
same,inhibition at 10 µM,α2C adrenergic receptor,17.2%
same,inhibition at 10 µM,5-HT1B,-7.9%
same,Ki,[6],0.6 to 15.4 nM
same,dose above which temperature and active behaviors temporarily decreased,C57/BL6J mice; acute,above 100 mg/kg
same,serious toxic side effects or mortality,C57/BL6J mice; up to 300 mg/kg,no serious toxic side effects or mortality
same,inhibition at 10 µM,D4 dopamine receptor,-2.5%
same,inhibition at 10 µM,β3 adrenergic receptor,28.3%
same,inhibition at 10 µM,PBR,-1.5%
same,Remaining (metabolic stability),[7],81%
same,inhibition at 10 µM,5-HT2A,34.1%
